The values below come from patent US20230365620A1, “CYCLIN-DEPENDENT KINASE INHIBITORS AND METHODS OF USE” (DANA-FARBER CANCER INSTITUTE, INC., priority 2018, published 2023).

The target of test [1] is T1, CDK8 (Homo sapiens, UniProt P49336). The experiment in a line: LANTHASCREEN Eu Kinase Binding Assay (competitive kinase binding, Tracer displacement). Particulars: displacing the Tracer from binding to the target kinase; read-out: Enzyme IC50. Further details: purchased INVITROGEN
Target sequence in this assay (P49336 whole entry): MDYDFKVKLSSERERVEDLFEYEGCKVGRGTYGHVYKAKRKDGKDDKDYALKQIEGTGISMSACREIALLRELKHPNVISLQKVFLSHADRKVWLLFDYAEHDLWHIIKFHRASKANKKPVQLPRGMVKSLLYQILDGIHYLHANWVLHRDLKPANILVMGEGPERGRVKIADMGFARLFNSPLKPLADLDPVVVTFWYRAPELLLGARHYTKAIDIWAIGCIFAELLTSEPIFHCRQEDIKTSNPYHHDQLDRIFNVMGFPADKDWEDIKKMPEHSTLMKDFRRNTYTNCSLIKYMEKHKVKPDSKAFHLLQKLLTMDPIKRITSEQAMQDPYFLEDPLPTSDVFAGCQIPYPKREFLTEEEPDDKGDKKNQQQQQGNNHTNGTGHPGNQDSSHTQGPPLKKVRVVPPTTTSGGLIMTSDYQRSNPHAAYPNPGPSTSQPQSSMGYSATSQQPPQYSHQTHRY
Target sequence in this assay (P24863 whole entry partner): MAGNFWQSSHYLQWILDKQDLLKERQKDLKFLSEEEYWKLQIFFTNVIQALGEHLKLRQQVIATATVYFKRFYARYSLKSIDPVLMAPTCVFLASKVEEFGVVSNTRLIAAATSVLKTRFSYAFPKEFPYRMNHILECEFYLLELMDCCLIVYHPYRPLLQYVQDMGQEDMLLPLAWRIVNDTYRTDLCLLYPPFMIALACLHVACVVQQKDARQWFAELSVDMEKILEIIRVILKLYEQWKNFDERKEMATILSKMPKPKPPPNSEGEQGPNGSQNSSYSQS
On the procedure: The biological activities of the compounds of the present application can be assessed through a variety of methods known in the art. […] The changes in the signal produced by the reporting ligand when the compound is present relative when the compound is absent are recorded, which are calculated to provide the IC50 of the compound. Compounds of the present application were tested in a competitive kinase binding assay by using commercially available assay system. For example, LANTHASCREEN© Eu Kinase Binding Assay (INVITROGEN™) was used to measure the IC50 of the compounds of the present application in displacing the Tracer from binding to the target kinase, by following the assay protocol from INVITROGEN™.
(In general: TR-FRET usually uses a lanthanide donor and a delayed reading to cut background.)

The subject of test [2] is phosphorylation of S727-STAT1, a known CDK8 substrate, in HepG2 cells. Description: Western blot of pS727-STAT1 in IFNγ-treated HepG2 cells. The test is classed as cell-based. Particulars: 18 h with IFNγ, Compound 33 at 0.5, 1 or 5 μM, DCA at 0.1 or 1 μM. On the procedure: FIG. 1 is a Western blot illustrating inhibition of phosphorylation of 5727-STAT1, a known CDK8 substrate, to form pS727-STAT1. pS727-STAT1 and total STAT1 were from HepG2 cells independently treated for 18 h with interferon gamma (IFNγ) and 0.5 μM, 1 μM, or 5 μM Compound 33, or with IFNγ and 0.1 μM or 1 μM dehydrocortistatin A (“DCA”).
On the technique in general: Immunoblotting shows a protein as a band on a membrane.

The subject of the next test is panel of 468 kinases. Description: KINOMESCAN binding analysis, panel of 468 kinases. Particulars: 10 μM. How it is done: (§1) The KINOMESCAN® was performed with binding assays of Compound 33 against a panel of 468 kinases at a concentration of 10 μM.
(§2) To evaluate the kinase selectivity of compounds of the application, KINOMESCAN® binding analysis against a panel of 468 kinases at a concentration of 10 μM was conducted.

The next test concerns the target CDK19 (Homo sapiens, UniProt Q9BWU1). Description: KINOMESCAN binding analysis. On the procedure: as §1, §2
The target of test [3] is T1, CDK8. Description: KINOMESCAN binding analysis. How it is done: as §1, §2
Target sequence in this assay (P49336 whole entry): as the sequence (P49336 whole entry) above
Test [4] has as its target T2, NEK1 (Homo sapiens, UniProt Q96PY6).
T2 sequence (Q96PY6 1-1258): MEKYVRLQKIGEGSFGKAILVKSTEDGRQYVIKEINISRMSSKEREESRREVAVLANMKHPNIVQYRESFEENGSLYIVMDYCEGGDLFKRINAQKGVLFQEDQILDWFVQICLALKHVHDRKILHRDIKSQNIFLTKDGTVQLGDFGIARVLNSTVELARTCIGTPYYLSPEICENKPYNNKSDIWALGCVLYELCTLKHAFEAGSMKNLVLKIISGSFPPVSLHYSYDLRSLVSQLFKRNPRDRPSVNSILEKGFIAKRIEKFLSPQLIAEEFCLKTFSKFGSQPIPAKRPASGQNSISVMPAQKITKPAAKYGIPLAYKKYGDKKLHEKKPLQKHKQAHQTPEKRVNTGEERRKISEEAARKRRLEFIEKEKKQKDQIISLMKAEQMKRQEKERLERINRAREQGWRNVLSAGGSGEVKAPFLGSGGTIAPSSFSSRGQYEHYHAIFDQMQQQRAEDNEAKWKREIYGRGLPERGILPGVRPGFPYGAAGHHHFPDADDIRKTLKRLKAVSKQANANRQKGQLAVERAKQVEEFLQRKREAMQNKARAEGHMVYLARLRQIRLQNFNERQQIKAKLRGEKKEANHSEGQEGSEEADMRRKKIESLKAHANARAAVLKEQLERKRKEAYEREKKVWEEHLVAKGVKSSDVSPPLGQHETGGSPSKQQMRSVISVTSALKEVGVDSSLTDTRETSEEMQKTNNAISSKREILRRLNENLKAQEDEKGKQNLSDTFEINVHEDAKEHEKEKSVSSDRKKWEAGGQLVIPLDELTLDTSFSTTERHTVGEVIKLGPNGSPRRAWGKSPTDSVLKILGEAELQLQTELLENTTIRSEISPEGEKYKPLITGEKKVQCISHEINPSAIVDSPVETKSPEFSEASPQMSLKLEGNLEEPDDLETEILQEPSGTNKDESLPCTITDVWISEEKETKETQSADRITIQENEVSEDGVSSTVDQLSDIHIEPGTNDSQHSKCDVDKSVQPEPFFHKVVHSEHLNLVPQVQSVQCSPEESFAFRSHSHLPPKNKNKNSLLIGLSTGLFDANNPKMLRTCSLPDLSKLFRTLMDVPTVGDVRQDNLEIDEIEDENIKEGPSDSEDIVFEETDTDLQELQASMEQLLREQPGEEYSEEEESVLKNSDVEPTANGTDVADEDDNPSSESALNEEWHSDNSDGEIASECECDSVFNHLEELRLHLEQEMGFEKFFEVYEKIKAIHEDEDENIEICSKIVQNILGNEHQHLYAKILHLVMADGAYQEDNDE
Description: KINOMESCAN binding analysis. How it is done:
as §1, §2

A further test deals with PIKFYVE (Homo sapiens, UniProt Q9Y2I7). Description: KINOMESCAN binding analysis. How it is done: as §1, §2
PIKFYVE, sequence (Q9Y2I7 whole entry): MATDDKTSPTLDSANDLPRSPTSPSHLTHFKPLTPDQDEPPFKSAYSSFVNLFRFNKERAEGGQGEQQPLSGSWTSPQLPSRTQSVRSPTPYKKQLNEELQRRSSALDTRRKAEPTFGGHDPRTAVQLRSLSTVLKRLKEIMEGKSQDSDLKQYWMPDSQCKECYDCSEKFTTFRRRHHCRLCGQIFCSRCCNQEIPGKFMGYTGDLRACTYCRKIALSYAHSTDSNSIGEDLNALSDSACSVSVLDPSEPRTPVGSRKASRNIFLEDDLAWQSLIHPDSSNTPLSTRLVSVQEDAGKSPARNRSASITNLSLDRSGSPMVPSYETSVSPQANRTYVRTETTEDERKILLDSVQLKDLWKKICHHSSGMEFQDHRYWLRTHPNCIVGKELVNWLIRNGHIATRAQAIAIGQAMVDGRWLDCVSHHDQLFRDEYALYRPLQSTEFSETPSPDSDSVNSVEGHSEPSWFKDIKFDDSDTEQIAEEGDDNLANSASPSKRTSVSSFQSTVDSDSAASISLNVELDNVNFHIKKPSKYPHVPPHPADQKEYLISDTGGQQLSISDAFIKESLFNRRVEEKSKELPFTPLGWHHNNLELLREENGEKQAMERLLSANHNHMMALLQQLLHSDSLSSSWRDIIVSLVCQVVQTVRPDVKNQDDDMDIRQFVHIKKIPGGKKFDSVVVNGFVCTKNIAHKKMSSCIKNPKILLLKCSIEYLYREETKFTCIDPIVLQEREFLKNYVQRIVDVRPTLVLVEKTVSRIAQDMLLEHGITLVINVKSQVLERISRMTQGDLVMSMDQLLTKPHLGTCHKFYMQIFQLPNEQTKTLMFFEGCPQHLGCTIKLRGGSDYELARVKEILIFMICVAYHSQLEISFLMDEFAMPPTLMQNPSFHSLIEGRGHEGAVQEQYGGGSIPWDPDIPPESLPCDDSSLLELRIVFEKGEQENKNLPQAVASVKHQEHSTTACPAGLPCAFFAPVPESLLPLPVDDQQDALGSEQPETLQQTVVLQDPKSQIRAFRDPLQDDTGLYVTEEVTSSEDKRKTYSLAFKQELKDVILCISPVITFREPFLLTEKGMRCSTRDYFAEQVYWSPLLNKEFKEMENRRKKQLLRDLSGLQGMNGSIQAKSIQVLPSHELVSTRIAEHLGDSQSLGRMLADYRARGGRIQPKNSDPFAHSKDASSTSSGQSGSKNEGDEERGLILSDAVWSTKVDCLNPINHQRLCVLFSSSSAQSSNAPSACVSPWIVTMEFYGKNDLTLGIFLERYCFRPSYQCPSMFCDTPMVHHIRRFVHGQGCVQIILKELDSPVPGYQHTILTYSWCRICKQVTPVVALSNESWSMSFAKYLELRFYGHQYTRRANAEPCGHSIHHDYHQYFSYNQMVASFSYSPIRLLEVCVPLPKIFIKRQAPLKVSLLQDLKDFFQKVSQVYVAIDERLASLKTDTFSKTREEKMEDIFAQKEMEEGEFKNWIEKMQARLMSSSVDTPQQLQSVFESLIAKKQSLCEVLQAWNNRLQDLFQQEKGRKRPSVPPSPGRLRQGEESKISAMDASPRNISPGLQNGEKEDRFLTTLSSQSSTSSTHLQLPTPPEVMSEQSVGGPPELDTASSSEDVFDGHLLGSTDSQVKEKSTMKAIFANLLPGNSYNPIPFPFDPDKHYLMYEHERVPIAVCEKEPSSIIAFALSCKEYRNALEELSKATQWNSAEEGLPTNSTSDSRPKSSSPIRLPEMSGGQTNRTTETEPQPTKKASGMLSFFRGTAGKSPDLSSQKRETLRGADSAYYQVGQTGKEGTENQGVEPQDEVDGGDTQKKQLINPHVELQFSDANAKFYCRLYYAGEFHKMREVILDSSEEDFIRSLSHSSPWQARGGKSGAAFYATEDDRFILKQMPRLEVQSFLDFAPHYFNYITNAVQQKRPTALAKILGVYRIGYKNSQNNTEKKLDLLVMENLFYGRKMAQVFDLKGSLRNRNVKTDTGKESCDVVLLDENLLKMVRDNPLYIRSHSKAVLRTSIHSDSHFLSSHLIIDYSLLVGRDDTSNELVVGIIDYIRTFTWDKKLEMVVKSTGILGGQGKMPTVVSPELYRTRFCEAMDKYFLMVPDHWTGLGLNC
In test [5] the target is T2, NEK1. Description: Dose-response analysis of NEK1. It is filed as biochemical.
Test [6] deals with T1, CDK8. Description: CDK8 IC50 stated for DCA. It is filed as biochemical. Set-up: purchased INVITROGEN
Target sequence in this assay (P49336 whole entry): as the sequence (P49336 whole entry) above
Target sequence in this assay (P24863 whole entry partner): as the sequence (P24863 whole entry partner) above

CDK19, sequence (Q9BWU1 whole entry): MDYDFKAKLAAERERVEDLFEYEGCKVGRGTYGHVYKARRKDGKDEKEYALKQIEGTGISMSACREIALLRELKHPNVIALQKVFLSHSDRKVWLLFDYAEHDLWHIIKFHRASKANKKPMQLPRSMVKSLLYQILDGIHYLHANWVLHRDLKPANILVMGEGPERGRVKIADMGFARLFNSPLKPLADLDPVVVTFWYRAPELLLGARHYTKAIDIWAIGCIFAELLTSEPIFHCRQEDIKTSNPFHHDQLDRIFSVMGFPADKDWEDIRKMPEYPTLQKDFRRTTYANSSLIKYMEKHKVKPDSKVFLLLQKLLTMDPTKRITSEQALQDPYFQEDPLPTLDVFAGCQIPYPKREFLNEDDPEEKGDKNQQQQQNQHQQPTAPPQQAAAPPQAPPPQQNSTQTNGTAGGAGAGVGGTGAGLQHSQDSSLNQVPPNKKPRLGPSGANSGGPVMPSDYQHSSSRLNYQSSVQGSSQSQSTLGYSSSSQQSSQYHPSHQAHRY

As to `C[C@]12CC[C@H](O)CC1=CC[C@@H]1[C@@H]2CC[C@]2(C)C(c3ccc4cn[nH]c4c3)=CC[C@@H]12` [Compound 7], the IC50 at CDK8 [1] is above 6000 nM.
In the case of `C[C@]12CC[C@H](O)CC1=CC[C@@H]1C2CC[C@]2(C)C(c3ccc4cnccc4c3)=CC[C@@H]12` (some centres unmarked) [Compound 48], the IC50 at CDK8 [1] was above 6000 nM.
On the same count and under the same terms, as for `CN(C)[C@H]1CC[C@@]2(C)[C@@H](CC[C@@H]3[C@@H]2CC[C@]2(C)[C@@H](c4ccc5ccncc5c4)CC[C@@H]32)C1` [Compound 23, (3S,8R,9S,10S,13S,14S,17S)-(isoquinolin-7-yl)-N,N,10,13-tetramethylhexadecahydro-1H-cyclopenta[a]phenanthren-3-amine], the figure is below 100 nM; as for `C[C@]12CC[C@H](N3CCOCC3)C[C@@H]1CC[C@@H]1[C@@H]2CC[C@]2(C)[C@@H](c3ccc4ccncc4c3)CC[C@@H]12` [Compound 34, 4-((3S,5S,8R,10S,13S,14S,17S)-17-(isoquinolin-7-yl)-10,13-dimethylhexadecahydro-1H-cyclopenta[a]phenanthren-3-yl)morpholine], 101 to 200 nM.
The same measure, in the same setting: as for `CN[C@H]1CC[C@@]2(C)[C@@H](CC[C@@H]3[C@@H]2CC[C@]2(C)[C@@H](c4ccc5ccncc5c4)CC[C@@H]32)C1` [Compound 46, (3S,8R,9S,10S,13S,14S,17S)-17-(isoquinolin-7-yl)-N,10,13-trimethylhexadecahydro-1H-cyclopenta[a]phenanthren-3-amine], the figure is 701 to 2000 nM.
Turning to `C[C@]12CC[C@H]3[C@@H](CC=C4C[C@@H](O)CC[C@@]43C)[C@@H]1CC[C@@H]2c1ccc2cn[nH]c2c1` [Compound 13], the IC50 at CDK8 [1] was above 6000 nM.
Turning to `C[C@]12CC[C@H]3[C@@H](CC=C4C[C@@H](O)CC[C@@]43C)[C@@H]1CC[C@@H]2c1ccc2ccncc2c1` [Compound 8a, (3S,8S,9S,10R,13S,14S,17S)-17-(isoquinolin-7-yl)-10,13-dimethyl-2,3,4,7,8,9,10,11,12,13,14,15,16,17-tetradecahydro-1H-cyclopenta[a]phenanthren-3-ol], the IC50 on CDK8 [1] was below 100 nM.
As to `C[C@]12CC[C@H]3[C@@H](CC=C4C[C@@H](O)CC[C@@]43C)[C@@H]1CC[C@@H]2c1ccc2cnncc2c1` [Compound 9], the IC50 on CDK8 [1] is above 6000 nM.
Turning to `CN(C)[C@H]1CC[C@@]2(C)[C@@H](CC[C@@H]3[C@@H]2CC[C@]2(C)C(c4ccc5ccncc5c4)=CC[C@@H]32)C1` [Compound 22r, (3S,8R,9S,10S,13S,14S)-17-(isoquinolin-7-yl)-N,N,10,13-tetramethyl-2,3,4,5,6,7,8,9,10,11,12,13,14,15-tetradecahydro-1H-cyclopenta[a]phenanthren-3-amine], on CDK8 [1], the 50% inhibitory concentration (IC50) fell in the range of 101 to 200 nM.
In the case of `C[C@]12CC[C@H](O)CC1=CC[C@@H]1[C@@H]2CC[C@]2(C)C(c3ccc4cnncc4c3)=CC[C@@H]12` [Compound 3], the IC50 on CDK8 [1] is above 6000 nM.
With `C[C@]12CC[C@H](O)CC1=CC[C@@H]1[C@@H]2CC[C@]2(C)C(c3ccc4[nH]ncc4c3)=CC[C@@H]12` [Compound 6], the 50% inhibitory concentration (IC50) on CDK8 [1] is above 6000 nM.
For the molecule `CN(C)[C@H]1CC[C@@]2(C)C(=CCC3[C@@H]4CC[C@H](c5ccc6ccncc6c5)[C@@]4(C)CC[C@@H]32)C1` (stereo in doubt) [Compound 33, (3S,8R,9S,10R,13S,14S)-17-(isoquinolin-7-yl)-N,N,10,13-tetramethyl-2,3,4,7,8,9,10,11,12,13,14,15,16,17-tetradecahydro-1H-cyclopenta[a]phenanthren-3-amine], the “inhibition of S727 phosphorylation of STAT1” value in test [2] is “dose-dependent inhibition”. For the same molecule, the kinase selectivity result in the test with panel of 468 kinases is “highly selective for CDK8 and CDK19”. In the test with panel of 468 kinases, the “number of interactions greater than 90% inhibition” value is recorded as 4. The inhibition at 10 µM at CDK19, at CDK8 [3], at NEK1 [4] and on PIKFYVE was above 90% each time. For the same molecule, the IC50 against NEK1 [5] is above 10000 nM; at CDK8 [1] it was below 100 nM.
In the case of `CN(C)[C@@H]1CC[C@@]2(C)[C@@H](CC[C@@H]3[C@@H]2CC[C@]2(C)[C@@H](c4ccc5ccncc5c4)CC[C@@H]32)C1` [Compound 25], at CDK8 [1], the IC50 is below 100 nM.
As for `C[C@]12CC[C@H]3[C@@H](CC=C4C[C@@H](O)CC[C@@]43C)[C@@H]1CC[C@@H]2c1ccc2[nH]ncc2c1` [Compound 12], the concentration for half-maximal inhibition (IC50) at CDK8 [1] was above 6000 nM.
Take `C[C@]12CC[C@H](n3ccnn3)C[C@@H]1CC[C@@H]1[C@@H]2CC[C@]2(C)[C@@H](c3ccc4ccncc4c3)CC[C@@H]12` [Compound 39, 7-((3S,8R,9S,10S,13S,14S,17S)-10,13-dimethyl-3-(1H-1,2,3-triazol-1-yl)hexadecahydro-1H-cyclopenta[a]phenanthren-17-yl)isoquinoline]: the IC50 on CDK8 [1] was below 100 nM.
Consider `C[C@]12CC[C@H](O)CC1=CC[C@@H]1[C@@H]2CC[C@]2(C)C(c3ccc4c(N)n[nH]c4c3)=CC[C@@H]12` [Compound 5], for which, at CDK8 [1], the IC50 is 701 to 2000 nM.
On to `CN(C)[C@H]1C[C@@]23CC[C@@]4(O2)C(=CC[C@]2(C)C(c5ccc6ccncc6c5)=CC[C@H]24)C=C3[C@@H](O)[C@@H]1O` [DCA, dehydrocortistatin A, reference compound], for which, in test [2], the “inhibition of S727 phosphorylation of STAT1” value was “dose-dependent inhibition”. Besides, on CDK8 [6], the IC50 was found to be 17 nM.

The term IC50 denotes the midpoint of a concentration-inhibition curve. One may read the inhibition as the change of the read-out against control, counted positive when it falls. A low value points to a response near the control.
